Measured values: US7829304B2, “Compounds and related methods for mutant p53 reactivation” (Northwestern University, priority 2003, dated 2010)
Entries after “also recorded” stand apart in the source; their conditions may differ.

How the values were obtained:
[1] = test system: Saos2 cell lines expressing mutant p53 (Saos2-175, Saos2-281); assay: Cellular growth studies on Saos-2 cells expressing mutant p53; assay type: cell-based, human; details: for selective growth arrest/killing of cells expressing mutant p53 (in words): Saos-2 cells with mutant p53 versus p53-null cells
Description: (§1) Cellular growth studies were performed on Saos-2 cells, derived from a human osteosarcoma cancer cell line, according to the method described in Example 44. The cells had either no p53 (null) or mutant (mt) p53 at residues 175 and/or 281 (R175H and […], respectively). Selective arrest of mutant cells indicates good anticancer activity.
Cellular growth studies were performed on Saos2 cells. Human osteosarcoma Saos2 cells are devoid of endogenous p53 due to biallelic deletion of the p53 gene. Previously, a series of Saos2 cell lines were engineered to express several human p53 mutants that are commonly found in human cancers. The derivative Saos2 cell lines used in the present study included the following: 1) Saos2-CMV, which is the vector-only control cell line that is negative for p53 protein. 2) Saos2-175, which expresses the human mutant p53-R175H protein. The 175H substitution disrupts the structure of the protein resulting in the loss of DNA binding and tumor suppressor function. This mutation is found in ˜6% of all cancers of diverse tumor types. 3) Saos2-273, which expressed the human mutant p53-R273H protein. The 273H substitution eliminates a DNA contact point resulting in the loss of DNA binding and tumor suppressor function. This mutation represents the second most common hot spot mutation and is found in nearly 8% of all cancers. 4) Saos2-281, which expresses the human mutant p53-D281G protein. This mutation disrupts a stabilizing salt bridge resulting in the loss of DNA binding and tumor suppressor function.
The cells were grown at 37° C. in Dulbecco's modified Eagle's medium (Cambrex, East Rutherford, N.J.) supplemented with 10% fetal bovine serum (Hyclone, Logan, Utah) under 5% CO2. The cells were plated at 1×10^6 per 10 cm tissue culture plates and treated with escalating doses of the indicated compounds (Table 1) for varying lengths of time. Routine concentrations of the synthesized compounds ranged from 1-75 μM. After 72-96 hours, the cells were refed with fresh medium containing the appropriate concentration of the compound. In addition, parallel cultures were prepared and maintained under identical conditions without drug treatment as negative controls. The cells were microscopically analyzed during the course of treatment and the overall effectiveness of the drug treatment on cell growth and survival was assessed on day 7 by staining the cells with Giemsa Stain GS500 (SIGMA, St. Louis, Mo.). Prima-1 was included in all experiments for comparison purposes. […] The few Saos2 mutant p53 cells remaining after treatment with compound 7 were quite large and flat, reminiscent of a differentiated cell.

[2] = test system: Saos2-CMV cells (p53-null, vector-only control); assay: Cellular growth studies on p53-null Saos2 control cells; assay type: cell-based, human
Description: as §1
Cellular growth studies were performed on Saos2 cells. Human osteosarcoma Saos2 cells are devoid of endogenous p53 due to biallelic deletion of the p53 gene. Previously, a series of Saos2 cell lines were engineered to express several human p53 mutants that are commonly found in human cancers. The derivative Saos2 cell lines used in the present study included the following: 1) Saos2-CMV, which is the vector-only control cell line that is negative for p53 protein. 2) Saos2-175, which expresses the human mutant p53-R175H protein. […]
The cells were grown at 37° C. in Dulbecco's modified Eagle's medium (Cambrex, East Rutherford, N.J.) supplemented with 10% fetal bovine serum (Hyclone, Logan, Utah) under 5% CO2. […] The cells were microscopically analyzed during the course of treatment and the overall effectiveness of the drug treatment on cell growth and survival was assessed on day 7 by staining the cells with Giemsa Stain GS500 (SIGMA, St. Louis, Mo.). […]

SMILES | selective growth arrest/killing of cells expressing mutant p53 (in words) [1] | other results
CC(=O)OCC(N)(COC(C)=O)C(=O)c1ccccc1.Cl [Compound 4, 3-Acetoxy-2-(acetoxymethyl)-1-oxo-1-phenylpropan-2-aminium chloride] | activity at lower concentrations, as compared to PRIMA-1; also recorded: showed selectivity for R281G mutants | minimal effective concentration ([1]; Homo sapiens, 168 h, Mutant: 281, Saos-2 cells, concentration at which active, doses 1-75 μM, cell growth and survival assessed on day 7 by Giemsa stain): 10 µM
COC(=O)C(N)COC(C)=O.Cl (stereo not shown) [Compound 14, 3-Acetoxy-1-methoxy-1-oxopropan-2-aminium chloride] | the desired activity is lost | 
CC(=O)OCC(N)C(=O)c1ccccc1.Cl (racemic) [Compound 7, 3-Acetoxy-1-oxo-1-phenylpropan-2-aminium chloride] | activity at lower concentrations, as compared to PRIMA-1; also recorded: efficiently and selectively inhibited the growth of the Saos2 cell lines expressing mutant p53; also recorded: particularly effective at selectively killing cells expressing R175H and R281G p53 mutants at lower concentrations than PRIMA-1 | effect on growth of CMV-only cells which lack p53 protein ([2]; Saos2-CMV, assessed on day 7 by Giemsa stain): no effect
CC(=O)OC[C@@H](N)C(=O)c1ccccc1.Cl [Compound 8, (R)-3-Acetoxy-1-oxo-1-phenylpropan-2-aminium chloride] | improved activity over (±)-7 | 
CC(=O)OCC(C)(N)C(=O)c1ccccc1.Cl (stereo not shown) [Compound 17, 2-Amino-2-methyl-3-oxo-3-phenylpropyl acetate hydrochloride] | eliminates the desired activity | 
CNC(COC(C)=O)C(=O)c1ccccc1.Cl (stereo not shown) [Compound 16, 2-(Methylamino)-3-oxo-3-phenylpropyl acetate hydrochloride] |  | selective growth arrest/killing of cells expressing mutant p53 (in words) ([1]; acetate hydrochloride): the desired activity is lost; also recorded: eliminates the desired activity
O=C1C2CCN(CC2)C1(CO)CO [PRIMA-1, reference compound] |  | toxic to p53-null cells at concentration ([2]; p53-null Saos-2 cells): 75 µM
CC(=O)OCC(N)C(=O)N1CCOCC1.Cl (stereo not shown) [Compound 15, 3-Acetoxy-1-morpholino-1-oxopropan-2-aminium chloride] | the desired activity is lost | 
